In ChEMBL document CHEMBL6115007, “Synthesis and in vitro and in vivo evaluation of novel bivalent quinolines as antitumor agents via targeting autophagy in cervical cancer” (Eur J Med Chem, 2025):
Calls of active or inactive are those of the source. The rule behind the calls is not given here.

What was measured:
Ca-Ski [1] = assay: Antiproliferative activity against ATG5 deficient human Ca Ski cells assessed as inhibition of cell viability incubated for 24 hrs by CCK8 assay; assay type: functional, cell-based
Ca-Ski [2] = assay: Inhibition of colony formation in ATG5 deficient human Ca Ski cells at 0.1 to 0.4 uM incubated for 24 hrs by crystal violet staining based analysis; assay type: functional, cell-based; details: dose 0.1-0.4 µM
HeLa [3] = assay: Upregulation of autophagy pathway related gene expression in human HeLa cells at 1.2 uM incubated for 24 hrs by GSVA enrichment analysis; assay type: functional, cell-based
Ca-Ski [4] = assay: Effect on cleaved caspase 3 expression level in human Ca Ski cells at 0.25 to 1 uM incubated for 24 hrs by Western blot analysis; assay type: functional, cell-based; details: dose 0.25-1 µM
Ca-Ski [5] = assay: Induction of apoptosis in human Ca Ski cells assessed as viable cells at 1 uM preincubated with Z-VAD-FMK for 1 hrs followed by compound addition and measured after 24 hrs by Annexin V-FITC/PI staining based flow cytometric analysis (reference value: 90.2 %); assay type: functional; details: read-out: Activity
HeLa [6] = assay: Induction of autophagy in human HeLa cells assessed as increase in LC3-I conversion to LC3-II at 0.3 to 1.2 microM incubated for 24 hrs by Western blot analysis; assay type: functional, cell-based; details: dose 0.3-1.2 µM
HeLa [7] = assay: Induction of autophagy in human HeLa cells assessed as increase in ATG5 protein level at 0.6 to 1.2 uM incubated for 24 hrs by Western blot analysis; assay type: functional, cell-based; details: dose 0.6-1.2 µM
HeLa [8] = assay: Antiproliferative activity against Bax deficient human HeLa cells assessed as inhibition of cell viability incubated for 24 hrs by CCK8 assay; assay type: functional, cell-based
HeLa [9] = assay: Effect on SLC7A11 protein expression level in human HeLa cells at 0.6 uM incubated for 24 hrs by Western blot analysis; assay type: functional, cell-based
HeLa [10] = assay: Antitumor activity against human HeLa cells xenografted in female BALB/c mouse assessed as reduction in tumor weight at 8 mg/kg administered every four days and measured after 26 days relative to control; assay type: functional; set-up: scale not given: the % may be the effect or the level left; details: time 26 day
HeLa [11] = assay: Effect on cleaved caspase 3 expression level in p53 deficient human HeLa cells at 0.6 to 1.2 uM incubated for 24 hrs by Western blot analysis; assay type: functional, cell-based; details: dose 0.6-1.2 µM
HeLa [12] = assay: Induction of apoptosis in human HeLa cells assessed as early apoptotic cells at 0.6 uM incubated for 24 hrs by Annexin V-FITC/PI staining based flow cytometric analysis (reference value: 0.97 %); assay type: functional
[13] = Toxicity in female BALB/c mouse xenografted with human HeLa cells assessed as effect on RBC level at 4 to 8 mg/kg administered every four days and measured after 26 days; assay type: organism-based; details: in vivo, 624 h, dose 4-8 mg/kg, time 26 day
HepG2 = assay: Antiproliferative activity against human HepG2 cells assessed as reduction in cell optical density incubated for 48 hrs by MTT assay; assay type: functional, cell-based; details: HepG2, 48 h
Ca-Ski [14] = assay: Effect on caspase 3 expression level in p53 deficient human Ca Ski cells at 0.5 to 1 uM incubated for 24 hrs by Western blot analysis; assay type: functional, cell-based; details: dose 0.5-1 µM
SiHa = assay: Antiproliferative activity against human SiHa cells assessed as inhibition of cell growth at 0.4 to 1.6 uM by CCK8 assay; assay type: functional, cell-based; details: dose 0.4-1.6 µM, time 6.0 day
HeLa [15] = assay: Induction of autophagy pathway in human HeLa cells at 1.2 uM incubated for 24 hrs by GSEA analysis; assay type: functional, cell-based
Ca-Ski [16] = assay: Inhibition of cell migration in human Ca Ski cells at 0.5 to 1 uM measured after 24 hrs by transwell migration assay; assay type: functional, cell-based; details: dose 0.5-1 µM
HeLa [17] = assay: Inhibition of colony formation in human HeLa cells assessed as reduction in colony forming unit count at 0.15 to 0.6 uM incubated for 24 hrs by crystal violet staining based analysis; assay type: functional, cell-based; details: dose 0.15-0.6 µM
Ca-Ski [18] = assay: Induction of autophagy in human Ca Ski cells transfected with mRFP-GFP-LC3 plasmid assessed as appearance of RFP puncta clusters as aggregates in cytoplasm at 0.3 to 0.6 uM incubated for 24 hrs by DAPI staining based fluorescence confocal microscopic analysis; assay type: functional, cell-based; details: dose 0.3-0.6 µM
C-33-A = assay: Antiproliferative activity against human C-33-A cells assessed as inhibition of cell growth at 0.3 to 1.2 uM by CCK8 assay; assay type: functional, cell-based; details: dose 0.3-1.2 µM, time 6.0 day
Ca-Ski [19] = assay: Antiproliferative activity against ATG7 deficient human Ca Ski cells assessed as inhibition of cell viability incubated for 24 hrs by CCK8 assay; assay type: functional, cell-based
HeLa [20] = assay: Effect on ATG16L1 protein level in human HeLa cells at 0.6 to 1.2 uM incubated for 24 hrs by Western blot analysis; assay type: functional, cell-based; details: dose 0.6-1.2 µM
HeLa [21] = assay: Antiproliferative activity against human HeLa cells assessed as inhibition of cell viability incubated for 24 hrs by CCK8 assay; assay type: functional, cell-based
HeLa [22] = assay: Effect on ACSL4 protein expression level in human HeLa cells at 0.6 uM incubated for 24 hrs by Western blot analysis; assay type: functional, cell-based
HeLa [23] = assay: Induction of apoptosis in human HeLa cells assessed as viable cells at 1.2 uM incubated for 24 hrs by Annexin V-FITC/PI staining based flow cytometric analysis (reference value: 96.2 %); assay type: functional; details: read-out: Activity
Ca-Ski [24] = assay: Induction of apoptosis in human Ca Ski cells assessed as necrotic cells at 0.5 uM preincubated with Z-VAD-FMK for 1 hrs followed by compound addition and measured after 24 hrs by Annexin V-FITC/PI staining based flow cytometric analysis (reference value: 1.54 %); assay type: functional
HeLa [25] = assay: Effect on PARP expression level in p53 deficient human HeLa cells at 0.6 to 1.2 uM incubated for 24 hrs by Western blot analysis; assay type: functional, cell-based; details: dose 0.6-1.2 µM
Ca-Ski [26] = assay: Effect on PARP expression level in Bax deficient human Ca Ski cells at 0.5 to 1 uM incubated for 24 hrs by Western blot analysis; assay type: functional, cell-based; details: dose 0.5-1 µM
Ca-Ski [27] = assay: Induction of apoptosis in human Ca Ski cells assessed as late apoptotic cells at 0.5 uM incubated for 24 hrs by Annexin V-FITC/PI staining based flow cytometric analysis (reference value: 5.33 %); assay type: functional
Ca-Ski [28] = assay: Induction of autophagy in ATG7 deficient human Ca Ski cells assessed as increase in LC3-II expression at 0.5 to 1 uM incubated for 24 hrs by Western blot analysis; assay type: functional, cell-based; details: dose 0.5-1 µM
HeLa [29] = assay: Induction of autophagolysosome formation in human HeLa cells transfected with mRFP-GFP-LC3 plasmid assessed as increase in ratio of mRFP to GFP puncta at 0.4 to 0.8 uM incubated for 24 hrs; assay type: functional, cell-based; details: dose 0.4-0.8 µM
Ca-Ski [30] = assay: Effect on cleaved caspase 3 expression level in Bax deficient human Ca Ski cells at 0.5 to 1 uM incubated for 24 hrs by Western blot analysis; assay type: functional, cell-based; details: dose 0.5-1 µM
HeLa [31] = assay: Induction of autophagy in human HeLa cells transfected with mRFP-GFP-LC3 plasmid assessed as decrease in GFP fluorescence at 0.4 to 0.8 uM incubated for 24 hrs by DAPI staining based fluorescence confocal microscopic analysis; assay type: functional, cell-based; details: dose 0.4-0.8 µM
Ca-Ski [32] = assay: Antiproliferative activity against human Ca Ski cells assessed as inhibition of cell viability incubated for 24 hrs by CCK8 assay; assay type: functional, cell-based

COc1cccc(Nc2ccnc3cc(OCCCCCOc4ccc5c(Nc6cccc(OC)c6)ccnc5c4)ccc23)c1
IC50 (Ca-Ski [1]): 1580 nM
inhibition (Ca-Ski [2]): Minimal_effect
Activity (HeLa [3]): Active
Activity (Ca-Ski [4]): inactive
viability at 1 µM (Ca-Ski [5]): 86.1%
Activity (HeLa [6]): Active
Activity (HeLa [7]): Active
IC50 (HeLa [8]): 1320 nM
Activity (HeLa [9]): Moderate_effect
Activity (HeLa [10]): 81.76%
Activity (HeLa [11]): inactive
Activity (HeLa [12]): 0.8%
Activity [13]: Non-toxic
IC50 (HepG2): 31500 nM
Activity (Ca-Ski [14]): inactive
Activity (SiHa): Time-dependent-effect
Activity (HeLa [15]): Active
inhibition (Ca-Ski [16]): Active
inhibition (HeLa [17]): Active
Activity (Ca-Ski [18]): Active
Activity (C-33-A): Time-dependent-effect
IC50 (Ca-Ski [19]): 2890 nM
Activity (HeLa [20]): inactive
Activity (HeLa [21]): Dose-dependent-effect
IC50 (HeLa [21]): 648 nM
Activity (HeLa [22]): Moderate_effect
viability at 1.2 µM (HeLa [23]): 93.2%
Activity (Ca-Ski [24]): 1.4%
Activity (HeLa [25]): inactive
Activity (Ca-Ski [26]): inactive
Activity (Ca-Ski [27]): 5.88%
Activity (Ca-Ski [28]): inactive
Activity (HeLa [29]): Active
Activity (Ca-Ski [30]): inactive
Activity (HeLa [31]): Active
Activity (Ca-Ski [32]): Dose-dependent-effect
IC50 (Ca-Ski [32]): 775 nM
